ChEMBL document CHEMBL1201862, “PubChem BioAssay data set” (2004)
Active and inactive are the calls of the source.

Experiments:
[1] = biological target: T1, Rac GTPase-activating protein 1 (Homo sapiens, UniProt Q9H0H5); test: MgcRacGAP GTPase-activating activity inhibitors, confirmation, biochemical, ADP Hunter fluorescence, primary and confirmatory (AID 624330); type: functional
T1 sequence (Q9H0H5 whole entry): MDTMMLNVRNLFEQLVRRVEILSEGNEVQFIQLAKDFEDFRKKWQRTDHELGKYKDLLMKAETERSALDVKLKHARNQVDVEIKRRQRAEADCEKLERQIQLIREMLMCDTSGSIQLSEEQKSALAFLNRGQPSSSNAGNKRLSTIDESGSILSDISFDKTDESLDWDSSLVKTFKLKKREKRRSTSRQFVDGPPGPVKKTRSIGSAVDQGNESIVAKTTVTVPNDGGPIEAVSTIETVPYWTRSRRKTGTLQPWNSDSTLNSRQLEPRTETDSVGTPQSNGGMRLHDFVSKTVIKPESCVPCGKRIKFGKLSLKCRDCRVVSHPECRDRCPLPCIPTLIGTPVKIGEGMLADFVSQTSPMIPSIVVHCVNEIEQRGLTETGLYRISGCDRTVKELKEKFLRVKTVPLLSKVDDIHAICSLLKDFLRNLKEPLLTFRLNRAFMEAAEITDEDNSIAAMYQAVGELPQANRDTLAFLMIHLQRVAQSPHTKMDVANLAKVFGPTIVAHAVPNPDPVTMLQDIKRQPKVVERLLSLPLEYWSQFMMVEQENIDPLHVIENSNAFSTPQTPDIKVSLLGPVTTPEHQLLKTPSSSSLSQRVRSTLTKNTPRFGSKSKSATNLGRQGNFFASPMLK

[2] = biological target: T2, Heat shock factor protein 1 (Mus musculus, UniProt P38532); test: inhibition of MG132-induced HSE-luciferase signal, confirmation, cell-based, NIH3T3, luminescence, dose retest (AID 2382); type: functional;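 note: NIH3T3 fibroblasts with HSF1-driven luciferase reporter stressed by proteasome inhibitor MG132; luminescence from HSF1-driven luciferase expression after 8 hours of MG132 stress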
T2 sequence (P38532 whole entry): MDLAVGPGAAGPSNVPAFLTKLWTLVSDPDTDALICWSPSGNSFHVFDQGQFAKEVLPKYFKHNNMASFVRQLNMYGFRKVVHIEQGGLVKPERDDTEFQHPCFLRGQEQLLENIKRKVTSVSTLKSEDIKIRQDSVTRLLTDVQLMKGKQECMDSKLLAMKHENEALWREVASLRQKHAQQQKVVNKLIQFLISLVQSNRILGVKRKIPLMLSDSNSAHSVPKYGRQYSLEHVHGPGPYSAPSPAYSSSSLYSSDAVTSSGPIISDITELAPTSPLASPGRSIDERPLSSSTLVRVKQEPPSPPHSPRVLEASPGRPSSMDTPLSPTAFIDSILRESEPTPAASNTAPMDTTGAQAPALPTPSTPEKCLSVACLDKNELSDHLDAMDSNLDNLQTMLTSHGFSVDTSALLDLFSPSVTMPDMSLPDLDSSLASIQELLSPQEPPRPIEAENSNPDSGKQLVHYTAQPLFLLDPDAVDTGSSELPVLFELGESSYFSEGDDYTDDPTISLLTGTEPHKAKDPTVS

[3] = inhibitors of intracellular T. cruzi replication, confirmation, NIH3T3 host cells, beta-gal luminescence (AID 2044); type: functional, cell-based;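 note: intracellular parasites grown in NIH/3T3 mouse fibroblasts as host cells; luminescent beta-galactosidase reporter signal from transgenic T. cruzi replicating inside host cells; inhibitors lower the luminescence signal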
[4] = cytotoxicity toward NIH3T3 fibroblasts, dose response, counter-screen, cell-based, ATP luminescence, mouse fibroblasts (AID 2010); type: functional;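 note: cells exposed to compound for about 90 hours before reading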
Cytochrome P450 2C9 = Cytochrome P450 2C9 (Homo sapiens, UniProt P11712)
Cytochrome P450 2C9, sequence (P11712 whole entry): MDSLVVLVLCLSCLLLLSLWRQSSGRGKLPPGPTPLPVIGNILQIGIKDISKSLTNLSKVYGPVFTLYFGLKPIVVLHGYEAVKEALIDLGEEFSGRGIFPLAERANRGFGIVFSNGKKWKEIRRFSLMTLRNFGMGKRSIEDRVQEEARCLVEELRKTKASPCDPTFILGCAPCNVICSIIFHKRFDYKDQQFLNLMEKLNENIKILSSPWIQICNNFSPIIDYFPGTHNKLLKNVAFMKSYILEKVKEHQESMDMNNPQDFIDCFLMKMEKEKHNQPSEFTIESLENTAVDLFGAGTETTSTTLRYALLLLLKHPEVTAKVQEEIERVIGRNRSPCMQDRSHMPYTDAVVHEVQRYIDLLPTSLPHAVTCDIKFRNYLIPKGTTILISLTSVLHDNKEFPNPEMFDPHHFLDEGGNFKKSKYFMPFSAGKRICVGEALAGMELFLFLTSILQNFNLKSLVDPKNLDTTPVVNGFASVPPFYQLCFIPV

[5] = test system: Streptococcus sp. 'group A'; test: growth inhibition of control SK(-) GAS strain, dose response, counter-screen for streptokinase expression inhibitor project, luminescence, kanamycin, BacTiterGlo, confirmation (AID 1900); type: functional, organism-based
Streptokinase A = biological target: T3, Streptokinase A (Streptococcus pyogenes serotype M1, UniProt P10520); test: S. pyogenes streptokinase expression inhibitors, potency, dose response, plasminogen activation absorbance, OD405 (AID 1914); type: functional, Streptococcus pyogenes M1 GAS;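 note: secreted streptokinase activity via plasminogen activation per viability signal from cell pellet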
T3 sequence (P10520 whole entry): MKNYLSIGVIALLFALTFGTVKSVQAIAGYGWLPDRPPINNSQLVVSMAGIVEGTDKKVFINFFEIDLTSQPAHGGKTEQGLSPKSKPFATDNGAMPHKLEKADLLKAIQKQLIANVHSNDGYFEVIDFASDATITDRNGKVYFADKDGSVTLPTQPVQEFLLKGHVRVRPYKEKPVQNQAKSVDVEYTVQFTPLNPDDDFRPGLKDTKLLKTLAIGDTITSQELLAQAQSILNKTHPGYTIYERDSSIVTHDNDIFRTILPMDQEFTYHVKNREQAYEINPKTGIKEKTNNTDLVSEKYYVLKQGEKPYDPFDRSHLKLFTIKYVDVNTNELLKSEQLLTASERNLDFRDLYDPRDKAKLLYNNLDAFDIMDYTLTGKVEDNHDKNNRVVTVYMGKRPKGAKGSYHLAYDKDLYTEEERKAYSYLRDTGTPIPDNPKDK

Streptococcus = test: Group A Streptococcus viability loss, dose response, counter-screen for streptokinase expression inhibitor project, luminescence, BacTiterGlo (AID 1915); type: functional, organism-based;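 note: potency for reduction of bacterial viability or growth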
Cytochrome P450 2C19 = Cytochrome P450 2C19 (Homo sapiens, UniProt P33261); test: Cytochrome panel assay with activity outcomes. Panel member name: p450-cyp2c19 Compounds with AC50 equal or less than 10 uM are considered active; type: functional
Cytochrome P450 2C19, sequence (P33261 whole entry): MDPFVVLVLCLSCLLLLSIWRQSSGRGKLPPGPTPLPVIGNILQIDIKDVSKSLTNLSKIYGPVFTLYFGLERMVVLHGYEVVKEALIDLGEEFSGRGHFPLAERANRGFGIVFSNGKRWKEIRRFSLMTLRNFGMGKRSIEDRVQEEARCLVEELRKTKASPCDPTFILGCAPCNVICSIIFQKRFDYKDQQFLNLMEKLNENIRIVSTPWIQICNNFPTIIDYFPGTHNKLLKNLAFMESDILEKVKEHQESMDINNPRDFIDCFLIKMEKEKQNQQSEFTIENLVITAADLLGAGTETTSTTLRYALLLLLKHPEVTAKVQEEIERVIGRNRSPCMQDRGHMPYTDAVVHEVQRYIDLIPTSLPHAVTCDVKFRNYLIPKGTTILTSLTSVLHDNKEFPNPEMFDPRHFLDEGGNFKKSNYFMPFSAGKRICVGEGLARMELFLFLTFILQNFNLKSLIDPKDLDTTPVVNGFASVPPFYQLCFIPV

Cc1ccc(CN2CCN(Cc3ccco3)CC2)cc1
IC50 [1]: 72.7 µM (active)

CCOC(=O)N1CCC(NC(=O)CN2C(=O)CSc3nc(C)cc(C)c32)CC1
EC50 [2]: > 195 µM (not active)

CCn1c2ccccc2n2c(=O)c(=O)n(CC(=O)Nc3ccc(C(C)C)cc3)nc12
EC50 [2]: > 195 µM (not active)

COc1ccc(C2C(Oc3ccccc3)C(=O)N2c2cc(C)ccc2C)cc1OC (configuration not stated)
EC50 [3]: 2.24 µM (active)
EC50 [4]: > 60 µM (not active)

O=C(C1CCCN(S(=O)(=O)Cc2ccccc2)C1)N1CCc2ccccc21 (configuration not stated)
EC50 [2]: > 195 µM (not active)

COC(=O)[C@@]12CCCCN1[C@H](c1ccc(-c3cccc(Cl)c3)c(OC)c1)[C@@H]1C(=O)N(C)C(=O)[C@@H]12
EC50 [3]: 2.48 µM (active)
EC50 [4]: > 60 µM (not active)

CCOC(=O)c1ccc(Cl)c(NC(=O)c2cccnc2)c1
EC50 [2]: 30.8 µM (active)

Fc1ccc(-c2cc(-c3ccccc3)nc(-n3cccn3)n2)cc1
EC50 [2]: > 195 µM (not active)

Clc1cc(Cl)c(OCCCCn2cncn2)c(Cl)c1
IC50 [1]: 156 µM (active)

Cc1ccsc1/C=C(\C(=O)c1ccc(OC(C)C)cc1)c1nc2ccccc2o1
EC50 [3]: 1.69 µM (active)
EC50 [4]: > 60 µM (inconclusive)

O=C(c1cccc(F)c1)N1CCC[C@@]2(CCN(c3cccc(-c4ccccc4)c3)C2)C1
AC50 (Cytochrome P450 2C9): 20 µM (inconclusive)

COc1ccc(NC(=O)C(NC(=O)CNC(C)=O)c2ccc(C)cc2)cc1 (configuration not stated)
EC50 [2]: > 195 µM (not active)

O=C1c2cccc3c(Nc4ccccc4Cl)c([N+](=O)[O-])cc(c23)C(=O)N1CCO
EC50 [3]: 0.519 µM (active)
EC50 [4]: > 60 µM (not active)

Nc1nc(CSc2ncn(-c3ccccc3)n2)cs1
EC50 [2]: > 195 µM (not active)

Cc1ccc(/C=C(\NC(=O)c2ccccc2)C(=O)N2CCCC2C(=O)O)cc1 (configuration not stated)
EC50 [2]: > 195 µM (not active)

COc1ccc(S(=O)(=O)N2CCN=C2SCc2cccc(C)c2)cc1
EC50 [5]: > 150 µM (not active)
EC50 (Streptokinase A): 46.6 µM (inconclusive)
EC50 (Streptococcus): > 150 µM (not active)

CC1CC(C)CN(c2ccc(C(=O)NCc3ccc4c(c3)OCO4)cc2[N+](=O)[O-])C1 (configuration not stated)
EC50 [3]: 1.1 µM (active)
EC50 [4]: > 60 µM (not active)

NC(=O)CSc1nc2sc(-c3ccccc3)cc2c(=O)n1N
AC50 (Cytochrome P450 2C9): 3.55 µM (inconclusive)

c1ccn2c(SCc3ccc4c(c3)OCO4)nnc2c1
EC50 [2]: > 195 µM (not active)

O=C(Nc1ccccc1)NC1CC2CCC(C1)N2 (configuration not stated)
EC50 [2]: > 195 µM (not active)

COCCCNCCOc1ccc(C(C)(C)c2ccccc2)cc1
EC50 [3]: 0.611 µM (active)
EC50 [4]: 7.83 µM (active)

O=C(c1ccc(N2CCCCC2)c([N+](=O)[O-])c1)N(Cc1ccccc1)c1ccccn1
AC50 (Cytochrome P450 2C9): 7.94 µM (inconclusive)

COc1ccc(Oc2nc(-c3ccccn3)ncc2OC)cc1
EC50 [5]: > 150 µM (not active)
EC50 (Streptokinase A): > 150 µM (not active)
EC50 (Streptococcus): > 150 µM (not active)

CSc1ccc(CNc2ccc(C)c(C)c2)cc1
AC50 (Cytochrome P450 2C9): 14.1 µM (inconclusive)

COC(=O)CCNC(=O)c1ccc2nc(Cc3ccc(OC)cc3)oc2c1
EC50 [2]: > 195 µM (not active)

COc1cccc(CN2CCC(n3nccc3NC(=O)CCCc3ccccc3)CC2)c1O
EC50 [2]: > 195 µM (not active)

C[C@H](CO)NC(=O)[C@H](C)[C@@H]1C[C@@]1(C)[C@@H](NC(=O)OCc1ccccc1)c1ccccc1
AC50 (Cytochrome P450 2C9): 39.8 µM (inconclusive)

CC(C)C1Cc2c(sc3[nH]c(=S)n(Cc4ccccc4)c(=O)c23)CO1 (configuration not stated)
EC50 [5]: 2.15 µM (active)
EC50 (Streptokinase A): > 150 µM (not active)
EC50 (Streptococcus): 33.4 µM (active)

CCc1ccc(OCC(=O)NC(N=C(S)Nc2ccccc2C)C(Cl)(Cl)Cl)cc1 (configuration not stated)
EC50 [3]: 3.62 µM (active)
EC50 [4]: > 60 µM (not active)

CC(OC(=O)c1ccc(NC(=O)CC#N)cc1)C(=O)NC(=O)NC1CCCCC1 (configuration not stated)
EC50 [5]: 57.5 µM (active)
EC50 (Streptokinase A): > 150 µM (not active)
EC50 (Streptococcus): > 150 µM (not active)

Cc1ccc(/C=C/C2=NN(Cc3ccc(Cl)c(Cl)c3)C(=O)CC2)cc1
EC50 [5]: 17.2 µM (active)
EC50 (Streptokinase A): 24.3 µM (active)
EC50 (Streptococcus): 50.6 µM (active)

Cc1ccc(CNC(=O)CSc2nc3c(sc4ccccc43)c(=O)n2CCCN2CCCC2)cc1
EC50 [3]: 1.5 µM (active)
EC50 [4]: 32.5 µM (active)

Cc1ccccc1CN1CCN(C(=O)CC(C)C)CC1
EC50 [2]: > 195 µM (not active)

COc1ccc(C(=O)NCC(=O)OCCCOC(=O)CNC(=O)c2ccc(OC)c(OC)c2)cc1OC
EC50 [5]: > 150 µM (not active)
EC50 (Streptokinase A): > 150 µM (not active)
EC50 (Streptococcus): > 150 µM (not active)

Nc1ccc(-c2ccc(Nc3cc(S(=O)(=O)O)c(N)c4c3C(=O)c3ccccc3C4=O)cc2)c(S(=O)(=O)O)c1
AC50 (Cytochrome P450 2C9): 6.31 µM (inconclusive)

CC(C)Cc1ccc(CN2CCCC(NC(=O)c3cnc4ccccn4c3=O)C2)cc1 (configuration not stated)
EC50 [3]: 0.131 µM (active)
EC50 [4]: 26.7 µM (active)

CCn1c(C)[n+](CCCS(=O)(=O)[O-])c2cc(Cl)c(Cl)cc21
AC50 (Cytochrome P450 2C19): inconclusive

COc1ccc(NC2CCCN(C(=O)c3cccc(N(C)C)c3)C2)cc1 (configuration not stated)
IC50 [1]: 84.9 µM (active)

O=C(Nc1ccc(N2CCCC2)c(Cl)c1)c1ccc2c(c1)OCCO2
EC50 [3]: 0.555 µM (active)
EC50 [4]: > 30 µM (not active)

O=c1c(-c2cc(F)cc(F)c2)nc2cnc(N3CCNCC3)nc2n1Cc1ccc(F)cc1
AC50 (Cytochrome P450 2C9): 12.6 µM (inconclusive)

Cc1cc(OCC(=O)Nc2sc3c(c2C#N)CC(C)(C)NC3(C)C)c(C(C)C)cc1Cl
EC50 [2]: > 195 µM (not active)

NNC(=O)c1nn(-c2ccc(Cl)cc2)cc1O
EC50 [2]: 27 µM (active)

O=C(Nc1ccc2[nH]c(-c3cccnc3)nc2c1)c1ccccc1F
EC50 [2]: > 195 µM (not active)

COc1cc(/C=C/CN2CCC(Oc3ccc(C(=O)N4CCCC4)cc3)CC2)ccc1O
IC50 [1]: 81.2 µM (active)

CCc1ccc(NC(=O)CNCc2ccc(OC)c(OC)c2)cc1
IC50 [1]: 131 µM (active)

Cc1ccc(NC(=S)N=Nc2c(O)[nH]c3ccccc23)cc1
EC50 [5]: 1.22 µM (active)
EC50 (Streptokinase A): > 150 µM (not active)
EC50 [3]: 2.17 µM (active)
EC50 [4]: 4.31 µM (active)
EC50 (Streptococcus): 6.61 µM (active)

O=C(CP(=O)(c1ccccc1)c1ccccc1)Nn1cnnc1
AC50 (Cytochrome P450 2C19): inconclusive

COc1cc(/C=C/C(=O)OCC(=O)c2ccc[nH]2)ccc1O
IC50 [1]: 32.2 µM (active)

COc1cc(/C=N\NC(=O)c2ccc(Cn3cc(Br)c([N+](=O)[O-])n3)o2)cc(OC)c1O
EC50 [5]: 2.67 µM (active)
EC50 (Streptococcus): 4.9 µM (active)

Cc1cc(C)c(/N=C2\SCC(=O)N2Cc2ccco2)c(C)c1
EC50 [2]: > 195 µM (not active)

CCOC(=O)C1=C(Nc2ccccc2)CC(C)(O)C(C(=O)OCC)C1c1ccccc1 (configuration not stated)
EC50 [3]: > 60 µM (not active)
EC50 [4]: > 60 µM (not active)

CCCCNC(=O)C(=O)N/N=C/c1ccc(C(=O)OC)cc1
EC50 [2]: > 195 µM (not active)

C[C@H]1COc2c(C3(N)CC3)c(F)cc3c(=O)c(C(=O)O)cn1c23 [PAZUFLOXACIN]
EC50 [5]: 7.22 µM (active)
EC50 (Streptococcus): 6.74 µM (active)
